Results from the NIST ThermoML archive (doi:10.1016/j.tca.2019.178334).

Experiment: excess molar enthalpy (molar enthalpy of mixing); xn = mol fraction of the nth substance listed
Settings: 933 K, 101 kPa, Liquid, Calvet calorimetry

[Cl-].[Li+] [lithium chloride] + [Cl-].[K+]
Settings | excess molar enthalpy [kcal/mol]
x2 = 0 | 0
x2 = 0.026 | -0.117
x2 = 0.061 | -0.239
x2 = 0.073 | -0.308
x2 = 0.105 | -0.372
x2 = 0.128 | -0.488
x2 = 0.162 | -0.542
x2 = 0.188 | -0.638
x2 = 0.214 | -0.705
x2 = 0.24 | -0.781
x2 = 0.275 | -0.861
x2 = 0.298 | -0.884
x2 = 0.33 | -0.965
x2 = 0.371 | -1.02
x2 = 0.418 | -1.06
x2 = 0.427 | -1.04
